From patent US11149018B2, “Substituted N-arylethyl-2-aminoquinoline-4-carboxamides and use thereof” (Bayer Aktiengesellschaft, priority 2017, dated 2021) come the findings set out here.

This experiment has as its target FP receptor (Homo sapiens (Human), UniProt P43088). The experiment in a line: In vitro test of inhibition of human FP receptor activity (PGF2α-induced calcium flux in FP-expressing CHEM1 cells). Type of experiment: cell-based. Conditions: PGF2α 2 nM, some mean values of multiple determinations. Summed up:
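FP antagonism in FP-expressing CHEM1 cells loaded with Fluo-8. Compound preincubated 10 min at 37° C, then receptor stimulated with 2 nM (final) PGF2α in calcium-free Tyrode with 2 mM CaCl2.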
For orientation: A change in cytosolic calcium serves as a functional read-out for many receptors and channels.

FP receptor, sequence (P43088 whole entry): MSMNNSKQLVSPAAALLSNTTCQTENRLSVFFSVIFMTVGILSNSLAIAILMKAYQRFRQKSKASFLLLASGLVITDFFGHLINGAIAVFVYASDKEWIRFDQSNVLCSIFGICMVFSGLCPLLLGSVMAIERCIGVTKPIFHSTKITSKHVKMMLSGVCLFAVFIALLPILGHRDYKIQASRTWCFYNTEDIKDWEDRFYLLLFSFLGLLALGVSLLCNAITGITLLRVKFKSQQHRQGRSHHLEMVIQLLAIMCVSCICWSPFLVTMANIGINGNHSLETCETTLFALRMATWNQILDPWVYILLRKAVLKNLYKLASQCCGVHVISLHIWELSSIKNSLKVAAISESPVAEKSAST

For orientation: IC50 means the concentration at which inhibition is half-maximal. For `Cc1c(N2CCCC(C)C2)nc2ccc(Br)cc2c1C(=O)NCC(CCC(=O)O)c1ccccc1C(F)(F)F` (single isomer, unassigned; (-)) [Example 199, (−)-5-[({6-Bromo-3-methyl-2-[3-methylpiperidin-1-yl]quinolin-4-yl}carbonyl)amino]-4-[2-(trifluoromethyl)phenyl]pentanoic acid], the IC50 was 1.6 nM.

In the case of `Cc1c(N2CCCC(C)C2)nc2ccc(Br)cc2c1C(=O)NCC(CCC(=O)O)c1ccccc1C(F)(F)F` (single isomer, unassigned; (-)) [Example 200, (−)-5-[({6-Bromo-3-methyl-2-[3-methylpiperidin-1-yl]quinolin-4-yl}carbonyl)amino]-4-[2-(trifluoromethyl)phenyl]pentanoic acid], the IC50 came out at 17 nM.

With `Cc1c(N2CCCC(F)C2)nc2ccc(Br)cc2c1C(=O)NCC(CCC(=O)O)c1ccccc1OC(F)(F)F` (single isomer, unassigned; (-)) [Example 201, (−)-5-[({6-Bromo-2-[3-fluoropiperidin-1-yl]-3-methylquinolin-4-yl}carbonyl)amino]-4-[2-(trifluoromethoxy)phenyl]pentanoic acid], the IC50 amounted to 2.7 nM.

Turning to `Cc1c(N2CCCC(F)C2)nc2ccc(Br)cc2c1C(=O)NCC(CCC(=O)O)c1ccccc1OC(F)(F)F` (single isomer, unassigned; (-)) [Example 202, (−)-5-[({6-Bromo-2-[3-fluoropiperidin-1-yl]-3-methylquinolin-4-yl}carbonyl)amino]-4-[2-(trifluoromethoxy)phenyl]pentanoic acid], the IC50 was 1.7 nM.

As to `CCC1CCCN(c2nc3ccc(Br)cc3c(C(=O)NCC(CCC(=O)O)c3ccccc3OC(F)(F)F)c2C)C1` (single isomer, unassigned; (-)) [Example 207, (−)-5-[({6-Bromo-2-[3-ethylpiperidin-1-yl]-3-methylquinolin-4-yl}carbonyl)amino]-4-[2-(trifluoromethoxy)phenyl]pentanoic acid], the IC50 came out at 22 nM.

For `Cc1c(N2CCCC(C)C2)nc2ccc(Br)cc2c1C(=O)NCC(CCC(=O)O)c1ccccc1OC(F)(F)F` (single isomer, unassigned; (-)) [Example 209, (−)-5-[({6-Bromo-3-methyl-2-[3-methylpiperidin-1-yl]quinolin-4-yl}carbonyl)amino]-4-[2-(trifluoromethoxy)phenyl]pentanoic acid], the IC50 was 7 nM.

Turning to `Cc1c(N2CCCC(C)C2)nc2ccc(Br)cc2c1C(=O)NCC(CCC(=O)O)c1ccccc1OC(F)(F)F` (single isomer, unassigned; (-)) [Example 210, (−)-5-[({6-Bromo-3-methyl-2-[3-methylpiperidin-1-yl]quinolin-4-yl}carbonyl)amino]-4-[2-(trifluoromethoxy)phenyl]pentanoic acid], the half-maximal inhibitory concentration (IC50) came to 0.68 nM.

In the case of `Cc1ccc(F)cc1C(CCC(=O)O)CNC(=O)c1c(C)c(N2CCCC(F)(F)C2)nc2ccc(Br)cc12` (single isomer, unassigned; (-)) [Example 213, (−)-5-({[6-Bromo-2-(3,3-difluoropiperidin-1-yl)-3-methylquinolin-4-yl]carbonyl}amino)-4-(5-fluoro-2-methylphenyl)pentanoic acid], the IC50 came to 10 nM.

Consider `Cc1c(N2CCCC2)nc2ccc(Br)cc2c1C(=O)NCC(CCC(=O)O)c1c(F)ccc(F)c1Cl` (single isomer, unassigned; (-)) [Example 216, (−)-5-({[6-Bromo-3-methyl-2-(pyrrolidin-1-yl)quinolin-4-yl]carbonyl}amino)-4-(2-chloro-3,6-difluorophenyl)pentanoic acid], for which the IC50 came out at 2.9 nM.

In the case of `Cc1c(N2CCCC(F)(F)C2)nc2ccc(Br)cc2c1C(=O)NCC(CCC(=O)O)c1c(F)ccc(F)c1Cl` (single isomer, unassigned; (-)) [Example 218, (−)-5-({[6-Bromo-2-(3,3-difluoropiperidin-1-yl)-3-methylquinolin-4-yl]carbonyl}amino)-4-(2-chloro-3,6-difluorophenyl)pentanoic acid], the IC50 stood at 1.2 nM.

Consider `Cc1ccccc1C(CCC(=O)O)CNC(=O)c1c(C)c(N2CCCC(F)(F)C2)nc2ccc(Br)cc12` (single isomer, unassigned; (-)) [Example 230, (−)-5-({[6-Bromo-2-(3,3-difluoropiperidin-1-yl)-3-methylquinolin-4-yl]carbonyl}amino)-4-(2-methylphenyl)pentanoic acid], for which the IC50 came to 12 nM.

Take `Cc1ccccc1C(CCC(=O)O)CNC(=O)c1c(C)c(N2CCCC2)nc2ccc(Br)cc12` (single isomer, unassigned; (-)) [Example 234, (−)-5-({[6-Bromo-3-methyl-2-(pyrrolidin-1-yl)quinolin-4-yl]carbonyl}amino)-4-(2-methylphenyl)pentanoic acid]: the 50% inhibitory concentration (IC50) is 8.9 nM.

As for `COc1ccccc1C(CCC(=O)O)CNC(=O)c1c(C)c(N2CCCCC2)nc2ccc(Br)cc12` (single isomer, unassigned; (-)) [Example 236, (−)-5-({[6-Bromo-3-methyl-2-(piperidin-1-yl)quinolin-4-yl]carbonyl}amino)-4-(2-methoxyphenyl)pentanoic acid], the IC50 stood at 11 nM.

In the case of `COc1ccccc1C(CCC(=O)O)CNC(=O)c1c(C)c(N2CCCC2)nc2ccc(Br)cc12` (single isomer, unassigned; (-)) [Example 238, (−)-5-({[6-Bromo-3-methyl-2-(pyrrolidin-1-yl)quinolin-4-yl]carbonyl}amino)-4-(2-methoxyphenyl)pentanoic acid], the half-inhibitory concentration (IC50) was 44 nM.

`COc1ccccc1C(CCC(=O)O)CNC(=O)c1c(C)c(N2CCCCCC2)nc2ccc(Br)cc12` (single isomer, unassigned; (-)) [Example 240, (−)-5-({[2-(Azepan-1-yl)-6-bromo-3-methylquinolin-4-yl]carbonyl}amino)-4-(2-methoxyphenyl)pentanoic acid]: the concentration for half-maximal inhibition (IC50) stood at 16 nM.

For the compound `Cc1c(N2CCCC2)nc2ccc(Br)cc2c1C(=O)NCC(CCC(=O)O)c1c(F)cccc1F` (single isomer, unassigned; (-)) [Example 249, (−)-5-({[6-Bromo-3-methyl-2-(pyrrolidin-1-yl)quinolin-4-yl]carbonyl}amino)-4-(2,6-difluorophenyl)pentanoic acid], the IC50 turned out to be 9.4 nM.

With `Cc1c(N2CCCC(F)(F)C2)nc2ccc(Br)cc2c1C(=O)NCC(CCC(=O)O)c1c(F)cccc1F` (single isomer, unassigned; (-)) [Example 252, (−)-5-({[6-Bromo-2-(3,3-difluoropiperidin-1-yl)-3-methylquinolin-4-yl]carbonyl}amino)-4-(2,6-difluorophenyl)pentanoic acid], the IC50 was determined as 9.4 nM.

For the compound `Cc1c(N2CCCCC2)nc2ccc(Br)cc2c1C(=O)NCC(CCC(=O)O)c1cc(F)ccc1F` (single isomer, unassigned; (-)) [Example 256, (−)-5-({[6-Bromo-3-methyl-2-(piperidin-1-yl)quinolin-4-yl]carbonyl}amino)-4-(2,5-difluorophenyl)pentanoic acid], the IC50 was 8.4 nM.

As for `Cc1c(N2CCCC2)nc2ccc(Br)cc2c1C(=O)NCC(CCC(=O)O)c1cc(F)ccc1F` (single isomer, unassigned; (-)) [Example 260, (−)-5-({[6-Bromo-3-methyl-2-(pyrrolidin-1-yl)quinolin-4-yl]carbonyl}amino)-4-(2,5-difluorophenyl)pentanoic acid], the IC50 stood at 29 nM.

Turning to `Cc1c(N2CCCC(F)(F)C2)nc2ccc(Br)cc2c1C(=O)NCC(CCC(=O)O)c1cc(F)ccc1F` (single isomer, unassigned; (-)) [Example 262, (−)-5-({[6-Bromo-2-(3,3-difluoropiperidin-1-yl)-3-methylquinolin-4-yl]carbonyl}amino)-4-(2,5-difluorophenyl)pentanoic acid], the IC50 stood at 18 nM.

In the case of `Cc1c(N2CCCC(F)(F)C2)nc2ccc(Br)cc2c1C(=O)NCC(CCC(=O)O)c1c(Cl)cccc1Cl` (single isomer, unassigned; (-)) [Example 265, (−)-5-({[6-Bromo-2-(3,3-difluoropiperidin-1-yl)-3-methylquinolin-4-yl]carbonyl}amino)-4-(2,6-dichlorophenyl)pentanoic acid], the IC50 was determined as 13 nM.

Take `[2H]C1([2H])N(c2nc3ccc(Br)cc3c(C(=O)NCC(CCC(=O)O)c3ccccc3C(F)(F)F)c2C)C([2H])([2H])C([2H])([2H])C([2H])([2H])C1([2H])[2H]` (single isomer, unassigned; (-)) [Example 269, (−)-5-[({6-Bromo-3-methyl-2-[(^2H10)piperidin-1-yl]quinolin-4-yl}carbonyl)amino]-4-[2-(trifluoromethyl)phenyl]pentanoic acid]: the half-maximal inhibitory concentration (IC50) was 2.8 nM.

Turning to `[2H]C1([2H])N(c2nc3ccc(Br)cc3c(C(=O)NCC(CCC(=O)O)c3ccccc3C(F)(F)F)c2C)C([2H])([2H])C([2H])([2H])C1([2H])[2H]` (single isomer, unassigned; (-)) [Example 277, (−)-5-[({6-Bromo-3-methyl-2-[(^2H8)pyrrolidin-1-yl]quinolin-4-yl}carbonyl)amino]-4-[2-(trifluoromethyl)phenyl]pentanoic acid], the IC50 came to 34 nM.

For `Cc1c(N2CCCC2)nc2ccc(Br)cc2c1C(=O)NCC(CCC(=O)O)c1ccccc1C(F)(F)F` (single isomer, unassigned; (-)) [Example 280, (−)-5-[({6-Bromo-3-methyl-2-[(^2H8)pyrrolidin-1-yl]quinolin-4-yl}carbonyl)amino]-4-[2-(trifluoromethyl)phenyl]pentanoic acid], the IC50 stood at 2.4 nM.

Turning to `Cc1c(N2CCC(O)C2)nc2ccc(Br)cc2c1C(=O)NCC(CCC(=O)O)c1cc(F)ccc1Cl` (centres unmarked) [Example 16, 5-[({6-Bromo-2-[3-hydroxypyrrolidin-1-yl]-3-methylquinolin-4-yl}carbonyl)amino]-4-(2-chloro-5-fluorophenyl)pentanoic acid], the 50% inhibitory concentration (IC50) was determined as 290 nM.

Take `Cc1c(N2CCCC(C)C2)nc2ccc(Br)cc2c1C(=O)NCC(CCC(=O)O)c1cc(F)ccc1Cl` (centres unmarked) [Example 17, 5-[({6-Bromo-3-methyl-2-[3-methylpiperidin-1-yl]quinolin-4-yl}carbonyl)amino]-4-(2-chloro-5-fluorophenyl)pentanoic acid]: the IC50 was 4.1 nM.
